From publication doi:10.1101/094631v2 (biorxiv, 2017)

Biological target: BIKE kinase domain (biotinylated) (Homo sapiens, UniProt Q9NSY1)
Assay: TR-FRET tracer displacement
Format: binding

Chain of BIKE kinase domain (biotinylated) (Q9NSY1 38-345 limits assumed): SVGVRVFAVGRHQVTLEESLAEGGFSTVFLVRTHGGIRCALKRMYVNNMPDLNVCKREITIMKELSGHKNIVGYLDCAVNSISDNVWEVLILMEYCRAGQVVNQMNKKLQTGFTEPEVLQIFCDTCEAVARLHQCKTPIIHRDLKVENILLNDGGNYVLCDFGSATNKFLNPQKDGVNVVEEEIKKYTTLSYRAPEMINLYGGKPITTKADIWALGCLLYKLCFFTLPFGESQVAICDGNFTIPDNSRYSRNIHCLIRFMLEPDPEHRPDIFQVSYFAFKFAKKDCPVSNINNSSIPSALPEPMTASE

## CC(C)C(=O)Nc1n[nH]c2cc(-c3cccc(NS(=O)(=O)C4CC4)c3)ccc12 [compound 2, N-(6-(3-(cyclopropanesulfonamido)phenyl)-1H-indazol-3-yl)isobutyramide]
  Ki: 3.1 µM
